Experimental data as given in ChEMBL document CHEMBL6078672, “Chemical probes for the identification of the molecular targets of honokiol” (Eur J Med Chem, 2025).
pIC50: −log10 of the molar value.

How the values were obtained:
[1] = test system: OVCAR-3; assay: Cytotoxicity against human OVCAR-3 cells assessed as inhibition of cell growth incubated for 48 hrs by MTT assay; type: functional, cell-based; conditions: OVCAR-3, 48 h
[2] = Drug localization in human MDA-MB-231 cells assessed as increase in fluorescent band intensity at 1 to 10 uM incubated for 30 mins in presence of UV irradiation by coomassie brilliant blue staining based SDS-PAGE analysis; type: ADME, cell-based; conditions: mda-mb-231, 0.5 h, dose 1-10 µM
[3] = test system: MDA-MB-231; assay: Cytotoxicity against human MDA-MB-231 cells assessed as inhibition of cell growth incubated for 48 hrs by MTT assay; type: functional, cell-based; conditions: MDA-MB-231, 48 h
[4] = Drug localization in human MDA-MB-231 cells assessed as increase in fluorescent band intensity at 10 uM incubated for 30 mins in presence of honokiol by coomassie brilliant blue staining based SDS-PAGE analysis; type: ADME, cell-based; conditions: mda-mb-231, 0.5 h
[5] = Drug localization in human membrane fraction of MDA-MB-231 cells assessed as increase in fluorescent band intensity at 10 uM incubated for 30 mins in presence of 2-O-ethylhonokiol by coomassie brilliant blue staining based SDS-PAGE analysis; type: ADME, cell membranes; conditions: mda-mb-231, 0.5 h
[6] = Drug localization in human MDA-MB-231 cells assessed as increase in fluorescent band intensity at 20 uM incubated for 30 mins in presence of UV irradiation by coomassie brilliant blue staining based SDS-PAGE analysis; type: ADME, cell-based; conditions: mda-mb-231, 0.5 h
[7] = Drug localization in human MDA-MB-231 cells assessed as increase in fluorescent band intensity incubated for 30 mins in presence of UV irradiation by coomassie brilliant blue staining based SDS-PAGE analysis; type: ADME, cell-based; conditions: mda-mb-231, 0.5 h
[8] = Drug localization in human MDA-MB-231 cells assessed as increase in fluorescent band intensity at 10 uM incubated for 30 mins in presence of 2-O-ethylhonokiol by coomassie brilliant blue staining based SDS-PAGE analysis; type: ADME, cell-based; conditions: mda-mb-231, 0.5 h
[9] = Drug localization in human MDA-MB-231 cells assessed as increase in fluorescent band intensity at 20 uM incubated for 30 mins in absence of UV irradiation by coomassie brilliant blue staining based SDS-PAGE analysis; type: ADME, cell-based; conditions: mda-mb-231, 0.5 h
[10] = Drug localization in human membrane fraction of MDA-MB-231 cells assessed as increase in fluorescent band intensity at 10 uM incubated for 30 mins in presence of honokiol by coomassie brilliant blue staining based SDS-PAGE analysis; type: ADME, cell membranes; conditions: mda-mb-231, 0.5 h
[11] = test system: SK-OV-3; assay: Cytotoxicity against human SK-OV-3 cells assessed as inhibition of cell growth incubated for 48 hrs by MTT assay; type: functional, cell-based; conditions: SK-OV-3, 48 h
[12] = target: T1, 6-phosphogluconate dehydrogenase, decarboxylating (Homo sapiens) (UniProt P52209); assay: Binding affinity to PGD in human MDA-MB-231 cells assessed as change in melting temperature at 10 uM incubated for 1 hr by cellular thermal shift assay; type: cell-based
T1 sequence (whole entry): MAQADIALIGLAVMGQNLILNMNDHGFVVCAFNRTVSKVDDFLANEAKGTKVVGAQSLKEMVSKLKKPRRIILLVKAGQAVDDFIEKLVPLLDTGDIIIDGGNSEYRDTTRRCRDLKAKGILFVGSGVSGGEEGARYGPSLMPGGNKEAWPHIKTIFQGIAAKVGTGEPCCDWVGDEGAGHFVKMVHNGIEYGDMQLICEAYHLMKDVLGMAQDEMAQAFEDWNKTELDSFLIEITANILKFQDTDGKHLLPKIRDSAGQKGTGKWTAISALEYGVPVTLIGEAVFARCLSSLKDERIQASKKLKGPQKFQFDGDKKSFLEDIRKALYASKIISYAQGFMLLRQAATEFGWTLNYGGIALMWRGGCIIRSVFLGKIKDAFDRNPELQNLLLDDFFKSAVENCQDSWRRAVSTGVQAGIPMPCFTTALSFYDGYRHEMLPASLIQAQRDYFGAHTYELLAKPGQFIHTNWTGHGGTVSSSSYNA

[13] = target: T2, Protein LYRIC (Homo sapiens) (UniProt Q86UE4); assay: Binding affinity to Lyric in human MDA-MB-231 cells assessed as change in melting temperature at 10 uM incubated for 1 hr by cellular thermal shift assay; type: cell-based
T2 sequence (whole entry): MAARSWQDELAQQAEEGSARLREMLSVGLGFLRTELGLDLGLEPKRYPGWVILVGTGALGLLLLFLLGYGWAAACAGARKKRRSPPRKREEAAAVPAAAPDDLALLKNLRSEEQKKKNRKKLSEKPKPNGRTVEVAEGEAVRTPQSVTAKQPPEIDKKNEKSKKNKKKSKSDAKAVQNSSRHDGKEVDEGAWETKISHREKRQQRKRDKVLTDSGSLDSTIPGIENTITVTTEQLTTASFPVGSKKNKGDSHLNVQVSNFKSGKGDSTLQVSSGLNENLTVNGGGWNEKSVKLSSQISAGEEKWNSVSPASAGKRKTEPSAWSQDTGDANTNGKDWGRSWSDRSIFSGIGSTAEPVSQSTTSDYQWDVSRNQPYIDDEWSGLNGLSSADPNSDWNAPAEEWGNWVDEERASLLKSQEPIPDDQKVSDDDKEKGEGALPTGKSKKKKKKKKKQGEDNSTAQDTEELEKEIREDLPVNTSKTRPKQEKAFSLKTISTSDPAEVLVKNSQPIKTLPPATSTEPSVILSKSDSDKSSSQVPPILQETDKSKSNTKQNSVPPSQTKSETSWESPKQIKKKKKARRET

[14] = test system: MDA-MB-231; assay: Binding affinity to CAPN-1 in human MDA-MB-231 cells assessed as change in melting temperature at 10 uM incubated for 1 hr by cellular thermal shift assay; type: cell-based
[15] = target: T3, Dipeptidyl peptidase 3 (Homo sapiens) (UniProt Q9NY33); assay: Binding affinity to DPP3 in human MDA-MB-231 cells assessed as change in melting temperature at 10 uM incubated for 1 hr by cellular thermal shift assay; type: cell-based
T3 sequence (whole entry): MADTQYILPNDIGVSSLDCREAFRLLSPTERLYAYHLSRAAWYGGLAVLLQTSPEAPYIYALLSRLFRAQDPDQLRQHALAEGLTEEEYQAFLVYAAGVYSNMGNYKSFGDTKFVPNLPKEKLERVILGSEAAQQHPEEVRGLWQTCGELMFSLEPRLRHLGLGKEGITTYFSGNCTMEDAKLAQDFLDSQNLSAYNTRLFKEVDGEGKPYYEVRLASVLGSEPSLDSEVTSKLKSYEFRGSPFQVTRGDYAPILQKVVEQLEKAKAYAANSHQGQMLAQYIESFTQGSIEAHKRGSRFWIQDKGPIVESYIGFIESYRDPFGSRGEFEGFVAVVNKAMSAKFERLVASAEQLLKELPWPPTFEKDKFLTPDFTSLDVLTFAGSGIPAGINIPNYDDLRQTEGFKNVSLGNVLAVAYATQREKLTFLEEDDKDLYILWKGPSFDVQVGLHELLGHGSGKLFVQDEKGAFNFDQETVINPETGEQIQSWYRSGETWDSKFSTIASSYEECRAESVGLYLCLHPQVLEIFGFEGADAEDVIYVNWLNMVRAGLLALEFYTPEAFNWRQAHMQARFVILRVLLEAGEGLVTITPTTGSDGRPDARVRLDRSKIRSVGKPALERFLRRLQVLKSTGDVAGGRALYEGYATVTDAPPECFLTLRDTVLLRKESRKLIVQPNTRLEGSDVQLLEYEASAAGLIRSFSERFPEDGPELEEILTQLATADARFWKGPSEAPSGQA

[16] = Drug localization in human SK-OV-3 cells assessed as increase in fluorescent band intensity at 10 uM incubated for 30 mins by coomassie brilliant blue staining based SDS-PAGE analysis; type: ADME, cell-based; conditions: sk-ov-3, 0.5 h
[17] = Drug localization in human OVCAR-3 cells assessed as increase in fluorescent band intensity at 10 uM incubated for 30 mins by coomassie brilliant blue staining based SDS-PAGE analysis; type: ADME, cell-based; conditions: ovcar-3, 0.5 h

SMILES | pIC50 [1] | pIC50 [3] | pIC50 [11] | other results
C#CCCC1(CCC(=O)NCCCc2cc(-c3cc(CC=C)ccc3OCC)ccc2O)N=N1 | 4.30 | 4.41 | 4.36 | Drug uptake [2]: Not_active; Drug uptake [4]: Not_active; Drug uptake [5]: Not_active; Drug uptake [6]: Not_active; Drug uptake [7]: Dose-dependent-effect; Drug uptake [8]: Not_active; Drug uptake [9]: Not_active; Drug uptake [10]: Not_active
C=CCc1cc(-c2cc(Cc3cn(CCCCCC(=O)Nc4ccc(C(=O)c5ccc(NC(=O)CCCC[C@@H]6SC[C@@H]7NC(=O)N[C@@H]76)cc5)cc4)nn3)ccc2OCC)ccc1O | < 4.00 | < 4.00 | < 4.00 | –
C=CCc1cc(-c2cc(CCCn3cc(CCCC(=O)Nc4ccc(C(=O)c5ccc(NC(=O)CCCC[C@@H]6SC[C@@H]7NC(=O)N[C@@H]76)cc5)cc4)nn3)ccc2OCC)ccc1O | < 4.00 | < 4.00 | < 4.00 | –
C=CCc1ccc(OCC)c(-c2ccc(O)c(CC=C)c2)c1 | 4.43 | 4.55 | 4.37 | –
C=CCc1ccc(OCC)c(-c2ccc(O)c(CCCn3cc(CCCC(=O)Nc4ccc(C(=O)c5ccc(NC(=O)CCCC[C@@H]6SC[C@@H]7NC(=O)N[C@@H]76)cc5)cc4)nn3)c2)c1 | < 4.00 | < 4.00 | < 4.00 | –
C=CCc1ccc(OCCCn2cc(CCCC(=O)Nc3ccc(C(=O)c4ccc(NC(=O)CCCC[C@@H]5SC[C@@H]6NC(=O)N[C@@H]65)cc4)cc3)nn2)c(-c2ccc(O)c(CC=C)c2)c1 | < 4.00 | < 4.00 | < 4.00 | –
C=CCc1ccc(O)c(-c2ccc(O)c(CC=C)c2)c1 [HONOKIOL] | 4.29 | 4.34 | 4.32 | ΔTm [12]: 1.6 °C; ΔTm [13]: 1 °C; ΔTm [14]: 4.3 °C; ΔTm [15]: 2.3 °C
C#CCCC1(CCC(=O)NCCCc2ccc(OCC)c(-c3ccc(O)c(CC=C)c3)c2)N=N1 | 4.52 | 4.43 | 4.41 | Drug uptake [2]: Not_active; Drug uptake [4]: Not_active; Drug uptake [5]: Not_active; Drug uptake [6]: Active; Drug uptake [7]: Dose-dependent-effect; Drug uptake [16]: Active; Drug uptake [8]: Not_active; Drug uptake [9]: Not_active; Drug uptake [10]: Not_active; Drug uptake [17]: Active
